Experimental findings from ChEMBL document CHEMBL5291721, “A preclinical secondary pharmacology resource illuminates target-adverse drug reaction associations of marketed drugs” (Nat Commun, 2023) are described below.

The target in assay [1] is Gamma-aminobutyric acid receptor subunit alpha-1 (Rattus norvegicus, UniProt P62813).
The target of assay [2] is T1, Neuropeptide Y receptor type 1 (Homo sapiens, UniProt P25929).
T1 sequence (P25929 whole entry): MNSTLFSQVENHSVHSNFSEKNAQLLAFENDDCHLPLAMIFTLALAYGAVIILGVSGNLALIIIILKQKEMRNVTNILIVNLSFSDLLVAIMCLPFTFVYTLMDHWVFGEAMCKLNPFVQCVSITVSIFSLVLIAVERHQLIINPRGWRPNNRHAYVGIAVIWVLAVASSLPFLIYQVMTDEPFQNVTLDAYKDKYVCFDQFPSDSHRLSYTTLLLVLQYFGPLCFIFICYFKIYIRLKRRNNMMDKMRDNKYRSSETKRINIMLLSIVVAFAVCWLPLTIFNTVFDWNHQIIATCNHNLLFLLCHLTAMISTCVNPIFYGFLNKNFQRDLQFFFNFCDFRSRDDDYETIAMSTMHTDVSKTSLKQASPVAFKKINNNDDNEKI

Assay [3] concerns the target Beta-1 adrenergic receptor (Homo sapiens, UniProt P08588). The assay is classed as functional.
The target of assay [4] is Motilin receptor (Homo sapiens, UniProt O43193).
Assay [5] concerns the target T2, Alpha-2A adrenergic receptor (Homo sapiens, UniProt P08913).
T2 sequence (P08913 whole entry): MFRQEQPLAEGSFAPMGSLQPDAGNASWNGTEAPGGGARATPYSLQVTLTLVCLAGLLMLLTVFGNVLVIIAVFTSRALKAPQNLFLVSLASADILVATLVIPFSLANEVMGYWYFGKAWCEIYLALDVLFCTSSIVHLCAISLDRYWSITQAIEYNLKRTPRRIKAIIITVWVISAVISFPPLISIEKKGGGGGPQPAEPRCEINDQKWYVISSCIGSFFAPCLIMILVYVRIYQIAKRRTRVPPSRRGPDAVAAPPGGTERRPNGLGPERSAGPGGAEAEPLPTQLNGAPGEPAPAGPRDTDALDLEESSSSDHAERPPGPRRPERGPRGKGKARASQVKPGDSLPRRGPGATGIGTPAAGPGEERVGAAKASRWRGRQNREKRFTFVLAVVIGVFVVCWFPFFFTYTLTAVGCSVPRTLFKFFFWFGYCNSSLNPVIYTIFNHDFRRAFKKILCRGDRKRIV
The assay is classed as functional, cell-based.

In assay [6] the target is Histamine H3 receptor (Homo sapiens, UniProt Q9Y5N1).
Also: assay procedure not described here.

Chain of Histamine H3 receptor (Q9Y5N1 whole entry): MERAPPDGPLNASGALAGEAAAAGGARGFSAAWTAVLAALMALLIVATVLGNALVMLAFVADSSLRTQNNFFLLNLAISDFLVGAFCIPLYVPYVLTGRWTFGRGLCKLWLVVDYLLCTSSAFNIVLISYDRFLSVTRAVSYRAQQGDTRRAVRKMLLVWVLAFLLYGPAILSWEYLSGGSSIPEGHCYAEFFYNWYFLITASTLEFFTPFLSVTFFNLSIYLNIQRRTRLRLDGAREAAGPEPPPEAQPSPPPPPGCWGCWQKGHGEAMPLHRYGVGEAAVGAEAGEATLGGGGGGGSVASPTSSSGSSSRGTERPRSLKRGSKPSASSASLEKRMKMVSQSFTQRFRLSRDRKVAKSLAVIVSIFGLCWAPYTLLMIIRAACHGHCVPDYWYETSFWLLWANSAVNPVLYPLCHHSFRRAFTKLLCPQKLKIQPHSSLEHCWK
Chain of Motilin receptor (O43193 whole entry): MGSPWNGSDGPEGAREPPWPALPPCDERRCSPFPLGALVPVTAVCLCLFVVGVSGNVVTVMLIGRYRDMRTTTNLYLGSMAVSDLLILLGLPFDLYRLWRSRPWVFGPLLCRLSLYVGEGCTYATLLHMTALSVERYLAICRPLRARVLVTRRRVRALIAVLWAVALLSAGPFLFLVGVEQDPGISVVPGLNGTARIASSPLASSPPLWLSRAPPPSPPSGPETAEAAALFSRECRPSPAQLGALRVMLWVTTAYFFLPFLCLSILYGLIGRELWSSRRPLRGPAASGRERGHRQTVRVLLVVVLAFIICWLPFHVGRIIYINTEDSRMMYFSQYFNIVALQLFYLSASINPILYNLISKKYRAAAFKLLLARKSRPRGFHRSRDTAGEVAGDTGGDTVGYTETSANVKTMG
Chain of Beta-1 adrenergic receptor (P08588 whole entry): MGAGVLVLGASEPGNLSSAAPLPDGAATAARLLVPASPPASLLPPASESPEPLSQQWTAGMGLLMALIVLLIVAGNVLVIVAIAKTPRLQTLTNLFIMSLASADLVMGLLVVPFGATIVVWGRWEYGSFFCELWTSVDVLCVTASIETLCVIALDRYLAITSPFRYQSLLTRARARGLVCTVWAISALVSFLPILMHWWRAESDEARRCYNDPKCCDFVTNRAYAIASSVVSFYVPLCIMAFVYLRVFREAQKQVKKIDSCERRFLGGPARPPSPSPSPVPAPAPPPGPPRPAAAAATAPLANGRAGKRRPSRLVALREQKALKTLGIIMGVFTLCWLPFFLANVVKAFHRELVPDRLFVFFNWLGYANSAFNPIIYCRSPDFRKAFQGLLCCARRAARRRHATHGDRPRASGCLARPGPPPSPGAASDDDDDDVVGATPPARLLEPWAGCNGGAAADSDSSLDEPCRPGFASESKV
Chain of Gamma-aminobutyric acid receptor subunit alpha-1 (P62813 whole entry): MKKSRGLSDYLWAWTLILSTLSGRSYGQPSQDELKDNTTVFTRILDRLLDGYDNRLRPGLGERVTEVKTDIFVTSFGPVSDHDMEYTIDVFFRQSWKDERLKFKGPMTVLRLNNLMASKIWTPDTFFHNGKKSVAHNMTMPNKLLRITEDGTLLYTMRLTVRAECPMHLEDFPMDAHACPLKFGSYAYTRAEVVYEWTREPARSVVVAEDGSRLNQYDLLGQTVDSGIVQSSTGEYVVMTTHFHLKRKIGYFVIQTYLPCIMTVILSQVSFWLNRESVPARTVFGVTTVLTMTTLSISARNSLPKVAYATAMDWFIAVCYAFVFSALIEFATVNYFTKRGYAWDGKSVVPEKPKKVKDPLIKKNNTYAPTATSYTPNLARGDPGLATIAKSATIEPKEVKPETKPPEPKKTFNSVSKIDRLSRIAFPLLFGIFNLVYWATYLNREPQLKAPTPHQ

A word on the AC50: it is the midpoint of the concentration-response curve, whichever way the signal moves. High values mean activity only at high concentration, low ones activity at low concentration. Consider `C[N+]1(C)CCC(=C(c2ccccc2)c2ccccc2)CC1`, for which the AC50 in assay [1] is over 10 µM; in assay [2] it was over 30 µM; in assay [3] it was over 10 µM; in assay [4], over 30 µM; in assay [5], over 10 µM.
Regarding `C[N+](C)(C)CCOP(=O)([O-])OC[C@H](O)CO`, the AC50 in assay [1], in assay [2], in assay [3], in assay [4], in assay [6] and in assay [5] was over 30 µM each time.
Take `CN(C)Cc1nnc2n1-c1ccc(Cl)cc1C(c1ccccc1)=NC2` [ADINAZOLAM]: the AC50 in assay [1], in assay [2], in assay [3], in assay [4], in assay [6] and in assay [5] was over 10 µM in each case.
For `CN(C)C/C=C/C(=O)Nc1cc2c(Nc3ccc(F)c(Cl)c3)ncnc2cc1O[C@H]1CCOC1` [AFATINIB], the AC50 in assay [1], in assay [2], in assay [3], in assay [4], in assay [6] and in assay [5] was over 30 µM throughout.
With `Cc1ccccc1-n1c(CF)nc2ccc(N)cc2c1=O` [AFLOQUALONE], the AC50 in assay [1] was over 10 µM; in assay [2], over 30 µM; in assay [3], over 30 µM; in assay [4], over 30 µM; in assay [6], over 30 µM; in assay [5], over 10 µM.
Regarding `CCC1(c2ccc(N)cc2)CCC(=O)NC1=O` (stereo not given) [AMINOGLUTETHIMIDE], the AC50 in assay [1], in assay [2], in assay [3], in assay [4], in assay [6] and in assay [5] was over 30 µM throughout.
Turning to `CC1=C(C(=O)OC(C)C)C(c2cccc([N+](=O)[O-])c2)C(C(=O)OC2CN(C(c3ccccc3)c3ccccc3)C2)=C(N)N1` (stereo not given) [AZELNIDIPINE], the AC50 was over 30 µM in assay [1]; over 30 µM in assay [2]; 27 µM in assay [3]; 16 µM in assay [4]; over 30 µM in assay [6]; over 30 µM in assay [5].
For `CC(Cc1cccc(C(F)(F)F)c1)NCCOC(=O)c1ccccc1` (stereo not given) [BENFLUOREX], the AC50 in assay [2] was over 30 µM; in assay [3] it was 5.7 µM; in assay [4], over 30 µM; in assay [6], over 30 µM; in assay [5], over 30 µM.
As for `CCOC(=O)c1ccc(N)cc1` [BENZOCAINE], the AC50 in assay [1], in assay [2], in assay [3], in assay [4], in assay [6] and in assay [5] was over 10 µM in each case.
For the compound `CC(C)(Oc1ccc(CCNC(=O)c2ccc(Cl)cc2)cc1)C(=O)O` [BEZAFIBRATE], the AC50 in assay [1], in assay [2], in assay [3], in assay [4], in assay [6] and in assay [5] was over 10 µM in each case.
Take `O=C(O)COCCN1CCN(C(c2ccccc2)c2ccc(Cl)cc2)CC1` (stereo not given) [CETIRIZINE]: the AC50 in assay [2] is over 30 µM; in assay [3], over 10 µM; in assay [4], over 10 µM; in assay [6], over 10 µM; in assay [5], over 10 µM.
For the compound `C/C=C(/C(=C/C)c1ccc(O)cc1)c1ccc(O)cc1` [DIENESTROL], the AC50 in assay [1], in assay [2], in assay [3], in assay [4] and in assay [5] was over 10 µM throughout.
`CN[C@]1(c2ccccc2Cl)CCCCC1=O` [ESKETAMINE]: the concentration at half-maximal activity (AC50) in assay [1], in assay [2], in assay [3], in assay [4], in assay [6] and in assay [5] was over 30 µM throughout.
On to `COc1ccc([C@@H]2CC(=O)c3c(O)cc(O)cc3O2)cc1O` [HESPERETIN], for which the AC50 in assay [1], in assay [2], in assay [3], in assay [4] and in assay [5] was over 10 µM in each case.
`CNCCc1ccc(OC(=O)C(C)C)c(OC(=O)C(C)C)c1` [IBOPAMINE]: the AC50 in assay [1] is over 30 µM; in assay [2] it was over 30 µM; in assay [3], over 30 µM; in assay [4], over 30 µM; in assay [6] it was over 30 µM; in assay [5], 3.48 µM.
As to `CN(C)CCCN1c2ccccc2CCc2ccccc21` [IMIPRAMINE], the AC50 in assay [1] is over 10 µM; in assay [2], over 30 µM; in assay [3], over 10 µM; in assay [4] it was over 10 µM; in assay [6], over 10 µM; in assay [5], over 10 µM.
As to `CCOC(=O)C1=C(C)NC(C)=C(C(=O)OCC)C1c1ccccc1/C=C/C(=O)OC(C)(C)C` [LACIDIPINE], the AC50 in assay [1], in assay [2], in assay [3], in assay [4], in assay [6] and in assay [5] was over 30 µM each time.
In the case of `CCC[C@@H]1C[C@@H](C(=O)N[C@@H]([C@H]2O[C@H](SC)[C@H](O)[C@@H](O)[C@H]2O)[C@@H](C)O)N(C)C1` [LINCOMYCIN], the AC50 in assay [1] is over 10 µM; in assay [2] it was over 10 µM; in assay [3], over 10 µM; in assay [4], over 10 µM; in assay [5], over 30 µM.
On to `COC(=O)C1=C(C)NC(C)=C(C(=O)OCCN2CCN(C(c3ccccc3)c3ccccc3)CC2)C1c1cccc([N+](=O)[O-])c1` (stereo not given) [MANIDIPINE 6300], for which the AC50 in assay [1], in assay [2], in assay [3], in assay [4], in assay [6] and in assay [5] was over 30 µM throughout.
Consider `C=C1c2cccc(O)c2C(=O)C2=C(O)[C@]3(O)C(=O)C(C(N)=O)=C(O)[C@@H](N(C)C)[C@@H]3[C@@H](O)[C@H]12` [METHACYCLINE], for which the AC50 in assay [1] is over 10 µM; in assay [2], over 30 µM; in assay [3], over 10 µM; in assay [4] it was over 30 µM; in assay [5], over 10 µM.
As to `CN(Cc1cnc2nc(N)nc(N)c2n1)c1ccc(C(=O)N[C@@H](CCC(=O)O)C(=O)O)cc1` [METHOTREXATE], the AC50 was over 10 µM in assay [1]; over 30 µM in assay [2]; over 10 µM in assay [3]; over 10 µM in assay [4]; over 10 µM in assay [6]; over 10 µM in assay [5].
Consider `Cc1ccccc1N1C(=O)c2cc(S(N)(=O)=O)c(Cl)cc2NC1C` (stereo not given) [METOLAZONE], for which the AC50 in assay [1], in assay [2], in assay [3], in assay [4] and in assay [5] was over 10 µM each time.
Turning to `O=C(O)c1cccnc1Nc1cccc(C(F)(F)F)c1` [NIFLUMIC ACID], the AC50 in assay [1], in assay [2], in assay [3], in assay [4] and in assay [5] was over 10 µM in each case.
With `O=C1c2cccc3c2[C@H](CCC3)CN1[C@@H]1CN2CCC1CC2` [PALONOSETRON], the AC50 in assay [1], in assay [2], in assay [3], in assay [4], in assay [6] and in assay [5] was over 30 µM each time.
For the compound `OC[C@H]1O[C@@H](n2cnc3c2NC=NC[C@H]3O)C[C@@H]1O` [PENTOSTATIN], the AC50 in assay [1], in assay [2], in assay [3], in assay [4], in assay [6] and in assay [5] was over 30 µM in each case.
On to `CC(C)c1cccc(C(C)C)c1O` [PROPOFOL], for which the AC50 in assay [3], in assay [4], in assay [6] and in assay [5] was over 30 µM in each case.
Take `COC(=O)[C@H]1[C@H]2C[C@@H]3c4[nH]c5cc(OC)ccc5c4CCN3C[C@H]2C[C@@H](OC(=O)c2cc(OC)c(OC)c(OC)c2)[C@@H]1OC` [RESERPINE]: the AC50 in assay [1], in assay [2], in assay [3], in assay [4] and in assay [5] was over 10 µM each time.
Take `C[C@]12C=CC(=O)C=C1CC[C@@H]1[C@@H]2CC[C@]2(C)OC(=O)CC[C@@H]12` [TESTOLACTONE]: the AC50 in assay [1] is over 10 µM; in assay [2], over 10 µM; in assay [3] it was over 10 µM; in assay [4] it was over 10 µM; in assay [5], over 30 µM.
